Measurements as given in patent US20250099528A1, “ORAL COMPOSITION” (Toyo Shinyaku Co., Ltd., priority 2023, published 2025).

System: Caco-2 cells
Assay: Leucine permeability test using Caco-2 cells
Format: in vitro ADME, Human
Details: Caco-2 insert wells, luminal to basolateral side, culture two hours, L-leucine 0.131 mg/mL, HPLC
Method: To assess the action of promoting free amino acid absorption of a dark-green vegetable, leucine permeability was measured by a test using Caco-2 cells. The following materials were used as test substances. • (1) As a dark-green vegetable, crushed powder of young barley grass (containing 43% by weight of dietary fiber; manufactured by TOYO SHINYAKU Co., Ltd.) which was obtained by washing grass harvested before heading, then cutting, drying, and then crushing was used. The crushed powder of young barley grass in an amount of 24 mg was put into a tube, and after adding 1 mL of a buffer, the mixture was vortexed. Then, the supernatant was collected through centrifugation at 15,000×g for five minutes at room temperature. […] When the medium was changed before the addition of the samples, the medium outside the insert wells (the wells at the basolateral side) was replaced with 1000 μl of 10% FBS-DMEM, and the medium inside the insert wells (the wells at the luminal side) was replaced with 350 μl of 10% FBS-DMEM. • (5) The electrical resistance values were measured with Millicell ERS-2, and the wells having a value of 1000Ω or more were used. […] The leucine concentrations of the obtained concentrated liquids were measured with high performance liquid chromatography. The measurement results were applied to the equation below, and thus the leucine permeability was calculated. […]

Q: With `CC(C)C[C@H](N)C(=O)O` [Comparative Example 1, L-leucine] as the compound, how does the “Leucine Permeability (%)” value read?
A: 1.32%
